Patent US20260215425A1, “NITRIFICATION INHIBITORS” (The University of Melbourne, priority 2022, published 2026)
Like-named read-outs stand apart in the source and are kept apart here.

Key:
[1] = tested on: N. europaea; assay: acute toxicity test (LIVE/DEAD stain); format: cell-based; settings: [4-MPT]=1.5 mM (50 mol % of [NH4+]), [NH4+]=3 mM, 12 h
Procedure: Cells were harvested using the ‘standard cell harvesting protocol’. The bacteria solution was adjusted to an OD600=0.8 (100 μg/L protein). The solution was divided into 1 mL aliquots and transferred to a 24-well tissue culture plate (Greiner Cellstar®, polystyrene Tissue Culture treated). Each well contained 980 μL of bacterial solution, 10 μL of a 150 mM aqueous (NH4)2SO4 solution and 10 μL of a 150 mM inhibitor solution. […] After incubation, cells were transferred into a centrifuge tube and sedimented at 10,000 rpm for 10 minutes. The supernatant was discarded, and cells were re-suspended in 1 mL NaPB. A 5 μL aliquot was transferred into a 96-well plate and the bacterial stain (LIVE/DEAD™ BacLight™ Bacterial Viability Kit for microscopy, ThermoFisher Scientific) was added following the manufacturer's guideline. 10 μL of the solution was transferred onto a microscopic slide (Fisher Scientific, Australia, microscope slides 7.6 cm×2.5 cm (L×W), thickness 1-1.2 mm). Ten images were taken per treatment with a fluorescence microscope (Leica DM6000, Germany) using the red filter setting (excitation:
575/30 nm (dichromatic) DC: 600; emission: 635/40 nm) and green channel using filter setting (excitation: 500/20 nm DC: 515; emission: 535/30 nm) to detect dead and live cells respectively. The percentage of live and dead cells was calculated via eqns.

[2] = tested on: N. europaea; assay: mode of inhibition, Michaelis-Menten kinetics of NO2- production; format: cell-based; settings: for Km: read-out: Km(app)
Procedure: These studies were performed using a modified procedure of that described earlier. In FIG. 4a, the rate of NO2^− production was measured as a function of [NH4^+] to determine whether the inhibitor follows Michaelis-Menten kinetics. The [NH4^+] was 0.003 mM, 0.03 mM, 0.5 mM, 1.5 mM, 3 mM, 10 mM, 15 mM and 30 mM. [4-MPT] remained constant at 0.3 mM. The Michaelis-Menten plots show saturation kinetics, where the NO2 production became independent of [NH4^+] beyond 0.5 mmol L^−1.
Mode of inhibition studies with remaining inhibitors N001, N003, N014 and N018 were conducted as a proof of concept.

[3] = inhibitor concentration 37.5 μM
[4] = inhibitor concentration 75.0 μM

How did the “% Dead” value [1] turn out when C#CCn1cc(C)nn1 [Compound 4-MPT, 4-Methyl-1-(prop-2-yn-1yl)-1H-1,2,3-triazole] was run?
Its value is 25 ± 8%.

And the “% Live” value [1]?
The value was 75 ± 8%.

What about the mode of inhibition ([2]; NO2- production against [NH4+]) of the same compound?
The mode of inhibition was “non-competitive inhibition mode”.

What about the “Vmax(app)” value [2, 3] of the same compound?
The value was 52.7 ± 2.0 μmol (mg protein min)^−1.

What about the Km [2, 3] of the same compound?
The Km was 30.2 ± 0.3 µM.

What about the “Vmax(app)” value [2, 4] of the same compound?
Its value is 39.2 ± 2.0 μmol (mg protein min)^−1.

And the Km [2, 4]?
Its Km is 23.7 ± 4 µM.
